Laboratory results taken from ChEMBL document CHEMBL1201862, “PubChem BioAssay data set” (2004).
Activity calls are given as the source filed them.

How the values were obtained:
Mu-type opioid receptor = Mu-type opioid receptor (Homo sapiens, UniProt P35372); format: functional, cell-based;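 further: U2OS cells with beta-arrestin recruitment to OPRM1 by beta-gal complementation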
Large T antigen = Large T antigen (Simian virus 40, UniProt P03070); format: functional, Betapolyomavirus macacae;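 further: Confirmatory-stage PubChem screen for compounds that inhibit SV40 T antigen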
[1] = molecular target: 5-hydroxytryptamine receptor 2A (Mus musculus, UniProt P35363); format: functional, cell-based;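 further: CHO-K1 cells with tagged receptor and beta-arrestin; agonist potency measured as compound-induced activation of the receptor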
[2] = molecular target: T1, Zinc finger protein mex-5 (Caenorhabditis elegans, UniProt Q9XUB2); assay: potency of MEX-5 RNA-binding blockers – biochemical, C. elegans, fluorescence polarization, dose response (AID 1960)
T1 sequence (Q9XUB2 whole entry): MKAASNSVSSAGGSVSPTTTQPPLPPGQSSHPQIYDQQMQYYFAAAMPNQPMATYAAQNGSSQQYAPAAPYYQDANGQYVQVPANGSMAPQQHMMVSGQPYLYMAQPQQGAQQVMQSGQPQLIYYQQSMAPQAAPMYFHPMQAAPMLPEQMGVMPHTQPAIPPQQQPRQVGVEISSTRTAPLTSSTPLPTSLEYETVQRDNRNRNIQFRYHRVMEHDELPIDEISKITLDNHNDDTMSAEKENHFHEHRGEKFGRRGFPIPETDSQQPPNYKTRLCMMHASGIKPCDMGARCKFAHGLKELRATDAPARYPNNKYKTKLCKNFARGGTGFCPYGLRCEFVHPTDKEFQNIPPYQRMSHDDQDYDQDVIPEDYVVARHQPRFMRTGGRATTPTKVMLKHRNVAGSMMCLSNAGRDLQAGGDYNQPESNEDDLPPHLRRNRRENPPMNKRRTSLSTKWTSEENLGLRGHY

[3] = molecular target: T2, RNA-binding protein pos-1 (Caenorhabditis elegans, UniProt G5EF15); assay: disruptors of C. elegans POS-1 RNA interaction – biochemical, fluorescence polarization, dose response (AID 1964);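 further: purified POS-1 fused to maltose binding protein made in E. coli; potency of compounds blocking POS-1 binding to fluorescent RNA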
T2 sequence (G5EF15 whole entry): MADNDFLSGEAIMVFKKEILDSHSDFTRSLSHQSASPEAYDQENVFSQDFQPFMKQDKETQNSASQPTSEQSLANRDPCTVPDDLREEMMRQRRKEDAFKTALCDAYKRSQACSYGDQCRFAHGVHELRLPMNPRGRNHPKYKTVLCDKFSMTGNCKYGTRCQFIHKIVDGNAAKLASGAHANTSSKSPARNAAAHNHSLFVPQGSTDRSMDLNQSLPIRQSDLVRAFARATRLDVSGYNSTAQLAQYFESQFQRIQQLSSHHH

[4] = viability of uninfected HEp-2 cells – cell-based, HTS, cytotoxicity control for RSV inhibitor project, dose response (AID 2410); format: functional; details: human respiratory syncytial virus
[5] = molecular target: Glucose-6-phosphate 1-dehydrogenase (Homo sapiens, UniProt P11413); assay: inhibition of Homo sapiens G6PD, dose series – biochemical, fluorescence, selectivity assay for P. falciparum G6PD inhibitor project, dose response (AID 504792); format: functional
Beta-galactosidase = Beta-galactosidase (Escherichia coli, UniProt Q8VNN2); assay: Dose response counterscreen for EBI2 assay utilizing the enzyme, b-galactosidase.; format: functional
[6] = molecular target: T3, Heat shock factor protein 1 (Mus musculus, UniProt P38532); assay: enhancement of HSF1-driven luciferase signal – cell-based, NIH3T3, luminescence, dose retest, confirmation (AID 435004); format: functional;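 further: stress induced by proteasome inhibitor MG132 added 30 min after compound; luciferase reporter driven by HSF1 response element in NIH3T3 cells; actives raise luminescence as potentiators of the MG132 stress response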
T3 sequence (P38532 whole entry): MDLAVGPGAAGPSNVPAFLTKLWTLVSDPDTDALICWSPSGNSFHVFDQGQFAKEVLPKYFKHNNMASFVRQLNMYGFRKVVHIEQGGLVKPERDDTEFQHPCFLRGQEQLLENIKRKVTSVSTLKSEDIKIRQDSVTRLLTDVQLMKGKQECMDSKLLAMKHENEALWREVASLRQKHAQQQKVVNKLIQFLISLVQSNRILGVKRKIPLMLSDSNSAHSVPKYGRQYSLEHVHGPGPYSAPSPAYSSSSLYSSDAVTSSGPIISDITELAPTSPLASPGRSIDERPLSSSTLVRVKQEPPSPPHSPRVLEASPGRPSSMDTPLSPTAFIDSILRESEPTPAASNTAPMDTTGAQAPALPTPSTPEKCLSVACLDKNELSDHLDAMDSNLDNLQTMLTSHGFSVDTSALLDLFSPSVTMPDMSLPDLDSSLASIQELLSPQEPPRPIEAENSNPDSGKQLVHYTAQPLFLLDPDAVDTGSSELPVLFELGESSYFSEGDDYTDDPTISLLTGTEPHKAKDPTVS

[7] = Counterscreen for activators of the function of SWI/SNF related, matrix associated, actin dependent regulator of chromatin, subfamily a, member 2 (SMARCA2, BRM): Luminescence-based cell-based high throughput dose response assay to identify non-selective compounds using the VP16 reporter assay.; format: functional
[8] = molecular target: SWI/SNF-related matrix-associated actin-dependent regulator of chromatin subfamily A member 2 (Homo sapiens, UniProt P51531); assay: Luminescence-based cell-based high throughput dose response assay to identify activators of the function of SWI/SNF related, matrix associated, actin dependent regulator of chromatin, subfamily a, member 2 (SMARCA2, BRM).; format: functional
[9] = molecular target: T4, Corticotropin-releasing factor receptor 2/Corticotropin-releasing factor-binding protein (Homo sapiens, UniProt P24387+Q13324); assay: Dose Response confirmation of uHTS hits for small molecule antagonists of the CRF-binding protein and CRF-R2 receptor complex.; format: functional; details: read-out: IC50_Mean
T4 sequence (Q13324 whole entry): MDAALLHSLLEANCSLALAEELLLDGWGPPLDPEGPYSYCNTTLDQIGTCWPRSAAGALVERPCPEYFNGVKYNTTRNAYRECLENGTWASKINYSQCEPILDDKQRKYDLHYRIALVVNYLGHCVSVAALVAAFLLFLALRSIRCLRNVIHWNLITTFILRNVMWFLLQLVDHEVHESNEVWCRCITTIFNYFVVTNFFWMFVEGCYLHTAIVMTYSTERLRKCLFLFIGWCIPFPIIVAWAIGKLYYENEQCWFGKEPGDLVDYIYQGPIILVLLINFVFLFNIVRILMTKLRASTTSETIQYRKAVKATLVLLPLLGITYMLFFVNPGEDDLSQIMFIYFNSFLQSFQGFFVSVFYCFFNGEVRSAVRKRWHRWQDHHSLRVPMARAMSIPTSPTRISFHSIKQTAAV
T4 sequence (P24387 whole entry): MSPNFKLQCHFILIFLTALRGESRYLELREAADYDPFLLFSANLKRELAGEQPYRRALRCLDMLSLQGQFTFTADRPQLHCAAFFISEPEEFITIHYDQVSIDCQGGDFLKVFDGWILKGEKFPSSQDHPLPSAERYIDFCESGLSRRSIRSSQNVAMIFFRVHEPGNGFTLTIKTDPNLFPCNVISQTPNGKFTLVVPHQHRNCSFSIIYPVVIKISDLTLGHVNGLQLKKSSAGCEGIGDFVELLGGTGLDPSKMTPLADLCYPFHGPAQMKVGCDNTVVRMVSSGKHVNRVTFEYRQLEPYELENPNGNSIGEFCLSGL

[10] = molecular target: T4, Corticotropin-releasing factor receptor 2/Corticotropin-releasing factor-binding protein; assay: activators of CRF receptor 2 with binding protein – uHTS hits, confirmation (AID 602473); format: functional; details: read-out: EC50_Mean
[11] = molecular target: T5, Replicative DNA helicase DnaB (Mycobacterium tuberculosis, UniProt P9WMR3); assay: DnaB intein splicing inhibitors, dose response, biochemical, cell-free fluorescence (AID 449749); format: functional
T5 sequence (P9WMR3 whole entry): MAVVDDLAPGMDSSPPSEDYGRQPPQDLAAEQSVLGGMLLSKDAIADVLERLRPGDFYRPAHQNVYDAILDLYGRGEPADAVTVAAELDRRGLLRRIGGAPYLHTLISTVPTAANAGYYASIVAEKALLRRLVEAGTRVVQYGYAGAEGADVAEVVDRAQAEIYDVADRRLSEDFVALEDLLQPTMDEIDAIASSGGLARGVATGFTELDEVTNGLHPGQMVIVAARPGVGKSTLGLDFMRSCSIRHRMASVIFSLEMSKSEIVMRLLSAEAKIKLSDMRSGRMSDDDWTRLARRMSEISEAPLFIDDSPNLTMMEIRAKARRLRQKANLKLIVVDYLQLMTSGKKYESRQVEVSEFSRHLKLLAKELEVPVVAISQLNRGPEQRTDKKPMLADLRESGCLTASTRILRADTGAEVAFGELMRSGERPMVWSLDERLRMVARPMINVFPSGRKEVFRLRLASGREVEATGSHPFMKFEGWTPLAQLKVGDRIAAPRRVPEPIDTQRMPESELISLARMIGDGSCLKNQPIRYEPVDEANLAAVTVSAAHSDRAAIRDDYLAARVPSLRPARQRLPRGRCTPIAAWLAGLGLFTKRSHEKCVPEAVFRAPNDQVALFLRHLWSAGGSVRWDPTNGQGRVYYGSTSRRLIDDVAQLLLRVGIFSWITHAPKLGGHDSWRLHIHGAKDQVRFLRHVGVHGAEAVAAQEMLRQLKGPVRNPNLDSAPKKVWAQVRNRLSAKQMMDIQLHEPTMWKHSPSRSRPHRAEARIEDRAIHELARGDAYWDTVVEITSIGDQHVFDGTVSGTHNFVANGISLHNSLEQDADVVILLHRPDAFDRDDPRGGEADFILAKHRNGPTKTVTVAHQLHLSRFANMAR

Protein RecA = molecular target: T6, Protein RecA (Mycobacterium tuberculosis, UniProt P9WHJ3); assay: Fluorescence Cell-Free Homogeneous Dose Retest to Identify Inhibitors of RecA-Intein Splicing Activity. [Related pubchem assays (depositor defined):AID2097, AID2223, AID489010, AID492950]; format: functional
T6 sequence (P9WHJ3 whole entry): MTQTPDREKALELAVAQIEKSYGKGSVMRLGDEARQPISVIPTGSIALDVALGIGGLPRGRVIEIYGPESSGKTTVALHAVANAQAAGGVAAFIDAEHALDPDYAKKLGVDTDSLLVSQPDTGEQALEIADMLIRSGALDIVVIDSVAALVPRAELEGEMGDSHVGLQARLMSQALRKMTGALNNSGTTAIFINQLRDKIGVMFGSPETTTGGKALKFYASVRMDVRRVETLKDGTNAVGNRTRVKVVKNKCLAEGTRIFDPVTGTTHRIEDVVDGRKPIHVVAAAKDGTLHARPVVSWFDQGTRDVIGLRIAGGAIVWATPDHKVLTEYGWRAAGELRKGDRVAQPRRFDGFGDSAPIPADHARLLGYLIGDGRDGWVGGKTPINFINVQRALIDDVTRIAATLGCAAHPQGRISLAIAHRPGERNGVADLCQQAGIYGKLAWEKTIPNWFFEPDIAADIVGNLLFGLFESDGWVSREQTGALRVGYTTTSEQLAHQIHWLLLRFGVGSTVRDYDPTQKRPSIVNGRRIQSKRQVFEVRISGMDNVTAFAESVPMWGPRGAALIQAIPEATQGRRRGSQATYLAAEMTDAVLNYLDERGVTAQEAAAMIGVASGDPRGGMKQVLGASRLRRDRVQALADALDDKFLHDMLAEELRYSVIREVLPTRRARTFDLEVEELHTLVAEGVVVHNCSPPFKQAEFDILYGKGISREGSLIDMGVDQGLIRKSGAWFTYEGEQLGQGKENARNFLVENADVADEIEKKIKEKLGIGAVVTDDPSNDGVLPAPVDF

Cytochrome P450 2C9 = Cytochrome P450 2C9 (Homo sapiens, UniProt P11712)
Cytochrome P450 2C19 = Cytochrome P450 2C19 (Homo sapiens, UniProt P33261); assay: Cytochrome panel assay with activity outcomes. Panel member name: p450-cyp2c19 Compounds with AC50 equal or less than 10 uM are considered active; format: functional
Cytochrome P450 1A2 = molecular target: T7, Cytochrome P450 1A2 (Homo sapiens, UniProt P05177);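 further: PubChem cytochrome P450 panel assay, CYP1A2 panel member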
T7 sequence (P05177 whole entry): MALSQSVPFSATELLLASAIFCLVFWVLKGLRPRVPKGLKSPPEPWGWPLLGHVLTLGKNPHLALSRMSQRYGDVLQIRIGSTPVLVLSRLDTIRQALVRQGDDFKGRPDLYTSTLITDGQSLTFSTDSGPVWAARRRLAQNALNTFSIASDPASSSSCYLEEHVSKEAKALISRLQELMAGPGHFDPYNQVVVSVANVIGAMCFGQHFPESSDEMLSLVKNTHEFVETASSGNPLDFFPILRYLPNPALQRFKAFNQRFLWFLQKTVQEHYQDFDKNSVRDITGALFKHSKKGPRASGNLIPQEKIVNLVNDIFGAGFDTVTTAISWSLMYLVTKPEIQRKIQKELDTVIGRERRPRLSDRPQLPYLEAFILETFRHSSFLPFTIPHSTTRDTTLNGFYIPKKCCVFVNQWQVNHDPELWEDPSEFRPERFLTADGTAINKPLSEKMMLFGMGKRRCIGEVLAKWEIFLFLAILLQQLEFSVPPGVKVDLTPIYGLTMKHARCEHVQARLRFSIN

Cytochrome P450 2D6 = Cytochrome P450 2D6 (Homo sapiens, UniProt P10635);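 further: CYP2D6 member of a cytochrome P450 panel assay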
[12] = reduced cellular PGC1a acetyl-lysine signal – cell-based, cherry-picked samples, dose response (AID 720514); format: functional;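 further: potency may reflect raised or lowered acetylation signal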

Chain of 5-hydroxytryptamine receptor 2A (P35363 whole entry): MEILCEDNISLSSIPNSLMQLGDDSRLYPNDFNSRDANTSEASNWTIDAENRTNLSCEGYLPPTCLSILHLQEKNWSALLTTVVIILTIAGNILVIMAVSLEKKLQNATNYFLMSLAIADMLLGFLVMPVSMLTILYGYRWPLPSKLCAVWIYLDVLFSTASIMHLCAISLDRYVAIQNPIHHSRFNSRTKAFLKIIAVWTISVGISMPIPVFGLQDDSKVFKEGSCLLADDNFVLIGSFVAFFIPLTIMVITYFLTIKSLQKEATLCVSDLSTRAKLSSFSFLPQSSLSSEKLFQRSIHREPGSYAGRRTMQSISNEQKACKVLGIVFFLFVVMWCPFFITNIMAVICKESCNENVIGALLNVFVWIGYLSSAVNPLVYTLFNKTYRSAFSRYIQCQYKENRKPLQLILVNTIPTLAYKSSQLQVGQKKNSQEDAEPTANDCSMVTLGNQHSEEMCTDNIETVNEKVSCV
Chain of Mu-type opioid receptor (P35372 whole entry): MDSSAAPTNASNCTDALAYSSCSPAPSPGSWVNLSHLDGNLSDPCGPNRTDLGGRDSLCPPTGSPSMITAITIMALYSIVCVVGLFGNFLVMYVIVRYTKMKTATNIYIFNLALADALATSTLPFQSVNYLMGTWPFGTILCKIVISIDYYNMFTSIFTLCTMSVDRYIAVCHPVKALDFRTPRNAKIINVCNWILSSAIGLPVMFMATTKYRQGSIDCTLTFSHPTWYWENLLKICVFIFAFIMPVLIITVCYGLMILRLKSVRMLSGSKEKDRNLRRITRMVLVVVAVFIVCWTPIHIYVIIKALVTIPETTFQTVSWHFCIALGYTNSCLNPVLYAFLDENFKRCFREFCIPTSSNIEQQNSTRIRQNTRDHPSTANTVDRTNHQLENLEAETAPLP
Chain of Beta-galactosidase (Q8VNN2 whole entry): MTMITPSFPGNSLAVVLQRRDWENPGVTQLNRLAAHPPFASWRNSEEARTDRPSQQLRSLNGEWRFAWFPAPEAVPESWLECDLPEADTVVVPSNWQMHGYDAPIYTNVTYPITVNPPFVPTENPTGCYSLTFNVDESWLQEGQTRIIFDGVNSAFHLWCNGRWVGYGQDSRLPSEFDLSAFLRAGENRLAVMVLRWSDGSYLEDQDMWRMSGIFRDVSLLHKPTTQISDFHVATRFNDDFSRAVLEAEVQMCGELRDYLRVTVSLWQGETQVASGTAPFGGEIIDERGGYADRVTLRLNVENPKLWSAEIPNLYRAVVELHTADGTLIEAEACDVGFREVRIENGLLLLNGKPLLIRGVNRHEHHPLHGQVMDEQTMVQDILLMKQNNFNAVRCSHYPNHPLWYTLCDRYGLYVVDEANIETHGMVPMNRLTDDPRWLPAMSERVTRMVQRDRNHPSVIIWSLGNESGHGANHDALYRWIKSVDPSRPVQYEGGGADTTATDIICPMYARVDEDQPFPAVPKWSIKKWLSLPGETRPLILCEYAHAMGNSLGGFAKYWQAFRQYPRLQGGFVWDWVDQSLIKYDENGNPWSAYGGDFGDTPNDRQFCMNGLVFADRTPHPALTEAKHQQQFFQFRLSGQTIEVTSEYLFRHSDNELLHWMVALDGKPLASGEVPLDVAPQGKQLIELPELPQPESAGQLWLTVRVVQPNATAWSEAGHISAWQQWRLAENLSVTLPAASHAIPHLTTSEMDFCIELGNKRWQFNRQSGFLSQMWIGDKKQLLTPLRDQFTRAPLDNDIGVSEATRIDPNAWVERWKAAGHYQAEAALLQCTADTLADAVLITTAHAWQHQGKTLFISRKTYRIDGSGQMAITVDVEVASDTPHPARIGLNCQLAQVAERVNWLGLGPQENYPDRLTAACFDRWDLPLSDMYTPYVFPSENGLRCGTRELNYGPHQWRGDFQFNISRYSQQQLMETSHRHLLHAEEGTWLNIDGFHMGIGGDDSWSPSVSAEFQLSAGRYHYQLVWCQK
Chain of Cytochrome P450 2C9 (P11712 whole entry): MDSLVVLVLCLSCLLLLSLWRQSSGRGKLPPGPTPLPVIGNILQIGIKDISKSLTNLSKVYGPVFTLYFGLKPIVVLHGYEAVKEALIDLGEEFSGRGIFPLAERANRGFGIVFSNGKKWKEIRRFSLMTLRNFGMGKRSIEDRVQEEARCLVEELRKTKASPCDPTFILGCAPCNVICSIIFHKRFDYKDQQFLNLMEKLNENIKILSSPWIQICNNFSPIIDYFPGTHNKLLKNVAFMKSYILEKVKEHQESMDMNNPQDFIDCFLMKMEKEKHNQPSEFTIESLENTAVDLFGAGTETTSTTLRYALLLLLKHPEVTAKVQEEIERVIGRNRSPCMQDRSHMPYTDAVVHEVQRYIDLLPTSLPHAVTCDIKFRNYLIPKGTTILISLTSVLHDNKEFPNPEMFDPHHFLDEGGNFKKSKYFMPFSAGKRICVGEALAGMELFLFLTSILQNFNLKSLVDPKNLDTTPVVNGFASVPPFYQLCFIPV
Chain of SWI/SNF-related matrix-associated actin-dependent regulator of chromatin subfamily A member 2 (P51531 whole entry): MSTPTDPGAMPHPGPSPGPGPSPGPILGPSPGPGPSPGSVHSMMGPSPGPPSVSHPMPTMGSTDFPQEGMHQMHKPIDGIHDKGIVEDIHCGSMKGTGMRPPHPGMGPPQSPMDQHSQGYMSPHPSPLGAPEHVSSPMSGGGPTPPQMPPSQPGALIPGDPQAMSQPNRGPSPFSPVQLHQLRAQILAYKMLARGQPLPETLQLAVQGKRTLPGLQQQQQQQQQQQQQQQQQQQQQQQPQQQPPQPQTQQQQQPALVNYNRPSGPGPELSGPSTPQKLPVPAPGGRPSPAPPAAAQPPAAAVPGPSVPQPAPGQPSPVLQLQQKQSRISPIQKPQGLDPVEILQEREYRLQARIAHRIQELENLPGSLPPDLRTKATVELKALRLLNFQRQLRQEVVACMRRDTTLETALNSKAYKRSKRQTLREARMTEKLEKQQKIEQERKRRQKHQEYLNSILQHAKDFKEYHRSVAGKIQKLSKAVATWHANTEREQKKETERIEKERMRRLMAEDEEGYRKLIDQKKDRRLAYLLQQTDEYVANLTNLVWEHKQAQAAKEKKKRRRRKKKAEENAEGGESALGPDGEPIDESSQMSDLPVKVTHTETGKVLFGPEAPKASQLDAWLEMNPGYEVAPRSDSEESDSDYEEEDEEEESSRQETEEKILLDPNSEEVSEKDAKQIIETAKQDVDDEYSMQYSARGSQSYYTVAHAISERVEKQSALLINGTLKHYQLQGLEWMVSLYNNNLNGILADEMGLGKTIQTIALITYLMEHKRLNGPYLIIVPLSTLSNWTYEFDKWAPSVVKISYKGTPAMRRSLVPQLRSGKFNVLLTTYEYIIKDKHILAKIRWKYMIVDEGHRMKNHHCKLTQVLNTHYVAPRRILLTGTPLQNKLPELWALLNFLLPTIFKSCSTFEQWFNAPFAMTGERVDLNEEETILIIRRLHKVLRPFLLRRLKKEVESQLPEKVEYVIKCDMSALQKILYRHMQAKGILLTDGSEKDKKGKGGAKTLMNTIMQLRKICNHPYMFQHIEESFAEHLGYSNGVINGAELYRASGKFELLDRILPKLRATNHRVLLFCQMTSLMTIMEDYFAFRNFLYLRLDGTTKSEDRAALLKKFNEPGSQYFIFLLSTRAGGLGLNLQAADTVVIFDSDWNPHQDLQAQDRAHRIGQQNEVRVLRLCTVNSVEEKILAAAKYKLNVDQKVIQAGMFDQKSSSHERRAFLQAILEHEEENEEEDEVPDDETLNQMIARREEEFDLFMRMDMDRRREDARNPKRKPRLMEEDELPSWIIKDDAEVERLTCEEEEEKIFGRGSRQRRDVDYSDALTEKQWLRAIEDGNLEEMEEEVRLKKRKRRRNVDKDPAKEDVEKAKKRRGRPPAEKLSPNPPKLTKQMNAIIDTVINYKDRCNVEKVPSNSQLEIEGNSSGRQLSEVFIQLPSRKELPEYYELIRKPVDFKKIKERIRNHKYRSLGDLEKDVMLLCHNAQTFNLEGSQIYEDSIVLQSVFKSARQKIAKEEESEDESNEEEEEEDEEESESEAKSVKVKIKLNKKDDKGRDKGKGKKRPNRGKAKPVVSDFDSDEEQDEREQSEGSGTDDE
Chain of Large T antigen (P03070 whole entry): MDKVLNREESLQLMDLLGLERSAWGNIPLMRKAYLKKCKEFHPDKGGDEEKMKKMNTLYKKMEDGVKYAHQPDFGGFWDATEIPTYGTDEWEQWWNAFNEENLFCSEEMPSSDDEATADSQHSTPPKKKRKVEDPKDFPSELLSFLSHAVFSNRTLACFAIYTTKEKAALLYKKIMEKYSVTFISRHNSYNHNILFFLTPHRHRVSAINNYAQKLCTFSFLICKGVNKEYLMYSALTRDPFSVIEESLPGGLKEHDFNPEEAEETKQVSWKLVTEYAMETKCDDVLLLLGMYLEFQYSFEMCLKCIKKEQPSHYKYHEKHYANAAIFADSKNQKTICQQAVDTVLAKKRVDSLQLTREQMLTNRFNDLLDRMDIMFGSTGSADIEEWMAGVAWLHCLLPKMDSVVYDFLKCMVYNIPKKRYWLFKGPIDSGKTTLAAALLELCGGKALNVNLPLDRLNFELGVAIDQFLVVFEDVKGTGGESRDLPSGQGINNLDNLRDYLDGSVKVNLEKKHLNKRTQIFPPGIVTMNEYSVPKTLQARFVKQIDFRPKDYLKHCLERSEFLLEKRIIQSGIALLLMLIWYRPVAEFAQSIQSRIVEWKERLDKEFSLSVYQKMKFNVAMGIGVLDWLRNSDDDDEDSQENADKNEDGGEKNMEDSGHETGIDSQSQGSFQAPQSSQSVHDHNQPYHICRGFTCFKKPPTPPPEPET

CN1CCc2cc(O)cc3c2[C@H]1Cc1ccc(O)c(O)c1-3
EC50 (Mu-type opioid receptor): 92.4 µM (inactive)
IC50 (Large T antigen): 9.43 µM (active)
EC50 [1]: 0.0112 µM (active)
EC50 [2]: 3.17 µM (active)
EC50 [3]: 5.41 µM (active)
CC50 [4]: 16 µM (active)
IC50 [5]: 63 µM (inactive)

Cc1ccc(C(=O)CNc2ccc(Cl)cc2)cc1
IC50 (Beta-galactosidase): 130 µM (inactive)
EC50 [6]: > 260 µM (inactive)
EC50 [7]: > 91.2 µM (inactive)
EC50 [8]: > 91.2 µM (inactive)

CCC(C)c1ccc(NC(=S)Nc2ccc(OC)cc2)cc1 (configuration not stated)
IC50 (Beta-galactosidase): > 80 µM (inactive)
IC50 [9]: > 47.1 µM (inactive)
EC50 [10]: > 53 µM (inactive)

COc1ccc(-c2cc(C(=O)N3CCN(C(c4ccccc4)c4ccccc4)CC3)no2)cc1
IC50 (Beta-galactosidase): > 80 µM (inactive)

CC(C)C[C@H]1C(=O)N2CCC[C@H]2[C@]2(O)O[C@](NC(=O)[C@@H]3C=C4c5cccc6[nH]c(Br)c(c56)CC4N(C)C3)(C(C)C)C(=O)N12 (some centres not stated)
EC50 (Mu-type opioid receptor): 92.5 µM (inactive)
EC50 [1]: 0.0038 µM (active)
AC50 [11]: > 380 µM (inactive)
EC50 (Protein RecA): > 380 µM (inactive)

CCS(=O)(=O)N1CCC(C(=O)NCCCN2CCN(c3ccccc3F)CC2)CC1
EC50 (Mu-type opioid receptor): 92.5 µM (inactive)
AC50 (Cytochrome P450 2C9): inconclusive
EC50 [1]: 76.1 µM (inactive)
AC50 (Cytochrome P450 2C19): inconclusive
AC50 (Cytochrome P450 1A2): 1.26 µM (inconclusive)
AC50 (Cytochrome P450 2D6): 15.8 µM (inconclusive)

Cc1ccc2[nH]c(C(=O)N3CCN(C(c4ccccc4)c4ccccc4)CC3)cc2c1
IC50 (Beta-galactosidase): > 80 µM (inactive)

C[C@@H]1CN([C@@H](C)CO)C(=O)c2cc(NC(=O)CCCN(C)C)ccc2O[C@@H](C)CCCCO[C@@H]1CN(C)Cc1ccc(C(F)(F)F)cc1
AC50 [12]: 37.9 µM (active)
